Data on one compound can be found in patent publication US20050004227A1, “Cell growth inhibitor” (priority 2001, published 2005).

The structures appear in SMILES notation. Like-named read-outs stand apart in the source and are kept apart here.

Common to all, as to format: cell-based
Data set [1] has as its system human pancreatic cancer cell line BxPC-3. Description: Cell growth inhibition of BxPC-3, MTS assay. As to the method:
AT-264 was dissolved in RPMI1640—10 mM Hepes with 100 units/mL penicillin and 0.1 mg/mL streptomycin (hereinafter, abbreviated to ‘the medium’) containing 0.5% ethanol and 0.5% DMSO to prepare 2.5 mM AT-264 solution. Furthermore, this solution was diluted with the medium to prepare 0.625 mM and 0.0625 mM AT-264 solutions.
5×10^4 cells/mL solution of BxPC-3 was prepared using the medium containing 50% FBS. This suspension was plated onto a 96-well plate pre-coated with Collagen type I at 40 μL/well (2×10^3 cells), and 160 μL of AT-264 solution was added. This was cultured for six days in a CO2 incubator, and on the sixth day of culturing, the number of viable cells was quantified by MTS assay.
On the technique in general: Tetrazolium dyes change colour on reduction, which living cells bring about.

The target in data set [2] is T1, PepT1 (Homo sapiens, UniProt P46059).
T1 construct: In Caco-2 cells, only PepT1 was expressed; endogenous in cells; host or cells: Caco-2 (human colon cancer cell line)
T1 sequence (P46059 1-708): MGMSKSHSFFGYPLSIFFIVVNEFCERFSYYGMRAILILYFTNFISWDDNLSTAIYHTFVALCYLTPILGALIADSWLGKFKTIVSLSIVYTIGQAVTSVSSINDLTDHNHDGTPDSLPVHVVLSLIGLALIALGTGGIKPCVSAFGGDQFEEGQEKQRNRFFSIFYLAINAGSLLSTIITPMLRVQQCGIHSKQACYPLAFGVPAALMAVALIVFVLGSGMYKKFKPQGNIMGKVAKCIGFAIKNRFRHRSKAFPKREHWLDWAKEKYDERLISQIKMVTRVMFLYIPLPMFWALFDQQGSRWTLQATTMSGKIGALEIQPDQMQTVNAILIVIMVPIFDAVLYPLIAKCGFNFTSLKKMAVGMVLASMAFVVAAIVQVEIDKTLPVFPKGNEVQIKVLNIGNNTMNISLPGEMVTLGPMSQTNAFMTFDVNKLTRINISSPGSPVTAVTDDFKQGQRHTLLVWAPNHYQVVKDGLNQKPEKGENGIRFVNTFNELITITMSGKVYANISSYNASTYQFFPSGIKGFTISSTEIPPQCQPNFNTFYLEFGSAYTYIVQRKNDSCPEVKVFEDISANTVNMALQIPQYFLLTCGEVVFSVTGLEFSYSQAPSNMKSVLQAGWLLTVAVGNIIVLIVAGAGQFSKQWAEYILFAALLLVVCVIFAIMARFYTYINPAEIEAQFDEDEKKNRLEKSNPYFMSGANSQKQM
The data set is described as follows: Inhibition of [14C] glycylsarcosine uptake into Caco-2 cells. On the procedure: AT-264's ability to inhibit PepT was examined using a human colon cancer cell line (Caco-2 cells). The results were that the IC50 for uptake of radioactive substrate [^14C] glycylsarcosine into cells was 100 μM (FIG. 1). In Caco-2 cells, only PepT1 was expressed, and PepT1 function was considered to be inhibited by AT-264. The purity of AT-264 used in the present experiment was approximately 50% to 60%, and the actual IC50 was thought to be about 50 μM or so.

For data set [3], the system named is human pancreatic cancer cell line AsPC-1. The data set is described as follows: Cell growth inhibition of AsPC-1, MTS assay. On the procedure: AT-264 was dissolved in RPMI1640—10 mM Hepes (hereinafter, abbreviated to ‘the medium’) containing 0.5% ethanol and 0.5% DMSO to prepare 2.5 mM AT-264 solution. Then, this solution was diluted with the medium to prepare 0.625 mM and 0.0625 mM AT-264 solutions.
A 5×10^4 cells/mL solution of human pancreatic cancer cell line AsPC-1 was prepared using a medium containing 50% FBS. This suspension was plated onto a 96-well plate pre-coated with Collagen type I at 40 μL/well (2×10^3 cells), and 160 μL of the AT-264 solution was added. This was cultured for six days in a CO2 incubator (on the second day of culturing, 100 units/mL penicillin and 0.1 mg/mL streptomycin were added). On the sixth day of culturing, the number of viable cells was quantified by MTS assay.

Data set [4] concerns the target T2, human PepT2 (Homo sapiens, UniProt Q16348).
T2 construct: expressed in transfected cells; host or cells: BaF3 (murine bone marrow-derived cell line)
T2 sequence (Q16348 1-729): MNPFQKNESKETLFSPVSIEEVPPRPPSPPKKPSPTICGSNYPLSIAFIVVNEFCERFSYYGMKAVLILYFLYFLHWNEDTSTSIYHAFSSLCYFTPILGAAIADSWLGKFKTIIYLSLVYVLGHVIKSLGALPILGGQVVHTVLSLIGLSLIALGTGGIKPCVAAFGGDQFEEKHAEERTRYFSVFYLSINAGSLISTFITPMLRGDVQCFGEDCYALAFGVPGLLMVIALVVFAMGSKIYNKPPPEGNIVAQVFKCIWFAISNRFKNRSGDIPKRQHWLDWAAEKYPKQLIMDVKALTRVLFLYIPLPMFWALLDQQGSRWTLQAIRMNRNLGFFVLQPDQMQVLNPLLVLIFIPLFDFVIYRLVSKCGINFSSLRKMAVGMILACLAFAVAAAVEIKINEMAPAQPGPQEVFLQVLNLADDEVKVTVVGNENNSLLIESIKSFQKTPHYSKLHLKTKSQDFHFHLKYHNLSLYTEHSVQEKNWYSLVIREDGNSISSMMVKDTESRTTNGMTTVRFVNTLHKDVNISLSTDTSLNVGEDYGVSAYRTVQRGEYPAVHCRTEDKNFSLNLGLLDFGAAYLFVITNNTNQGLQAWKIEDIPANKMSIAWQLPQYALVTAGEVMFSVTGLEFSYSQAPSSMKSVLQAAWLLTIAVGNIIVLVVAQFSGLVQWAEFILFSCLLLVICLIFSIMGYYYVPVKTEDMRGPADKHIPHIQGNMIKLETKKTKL
The data set is described as follows: Inhibition of [3H] glycylsarcosine uptake into BaF3/PepT2 cells. From the text:
The ability of AT-264 to inhibit PepT2 was examined using a murine bone marrow-derived cell line BaF3 in which human PepT2 is forced to be expressed (hereinafter, abbreviated to BaF3/PepT2).

The term inhibition denotes the share of the control response that was lost under treatment. Higher therefore signals a response far below the control. In general, IC50 refers to the concentration needed to halve the response being measured. For the compound `N=C(N)c1cccc(CC(NS(=O)(=O)NCc2cccc3ccccc23)C(=O)N2CCCCC2C(=O)O)c1` (stereo not drawn) [AT-264], the inhibition at 500 µM in data set [1] (Homo sapiens, 144 h, BxPC-3, 0.5 mM AT-264, six days culture) was roughly 20%. For the same compound, the inhibition at 2000 µM was roughly 75% in data set [1] (Homo sapiens, 144 h, BxPC-3, 2 mM AT-264, six days culture) and roughly 30% in data set [3] (Homo sapiens, ASPC1, 144 h, AsPC-1, 2 mM AT-264, six days culture). In data set [1] (in the presence of AT-264), the “Morphological changes to BxPC-3 under the microscope” value is “not observed”. Also, the IC50 in data set [2] (AT-264 purity approximately 50% to 60%, read-out: IC50 for uptake of radioactive substrate [14C] glycylsarcosine into cells) is 100 µM; in data set [2] (estimated from purity of approximately 50% to 60%, read-out: actual IC50 (corrected for purity of AT-264)), roughly 50 µM. Moreover, in data set [3] (AsPC-1, 0.5 mM AT-264, six days culture), the Cell growth inhibition result is on record as “slight”. Moreover, the “Morphological changes to AsPC-1 under the microscope” value in data set [3] (in the presence of AT-264) is “not observed”. Further, the “uptake of radioactive substrate [3H] glycylsarcosine into cells” value in data set [4] is “inhibited in a concentration-dependent manner”.
